From patent US10179775B2, “Cyclooctenes for bioorthogonol reactions” (The General Hospital Corporation, priority 2014, dated 2019)
Entries after “also recorded” stand apart in the source; their conditions may differ.

Columns and labels:
Format in all cases: physicochemical
[1] = Chemical stability in the presence of mercaptoethanol by 1H NMR; parameters: Icis / Itrans: unit not given here; settings: for Icis / Itrans / Itrans/(Icis + Itrans) / chemical stability (change by NMR) after 16 hours: mercaptoethanol; for Icis / Itrans / Itrans/(Icis + Itrans) / chemical stability / isomerization, result in words: 37° C.; for chemical stability / isomerization, result in words: 48 mM mercaptoethanol, 20 mM cyclooctene (s-TCO 10 mM), D2O:DMSO-d6 10:1 v/v, 0-25 h; for chemical stability (change by NMR) after 16 hours: D2O:DMSO-d6 10:1 v/v at 37° C.
Procedure: (§1) The chemical stability of the compounds of Examples 1-3 was also investigated in the presence of thiols (cysteine and mercaptoethanol) by NMR in D2O:DMSO-d6 10:1 v/v at 37° C.
(§2) The solutions were prepared by the dilution of a stock solution prepared in DMSO-d6. An end concentration of 20 mM of the cyclooctenes was used except for the s-TCO, which was used in 10 mM end concentration due to poorer solubility. A 20 mM solution could not be prepared by dilution with D2O from DMSO-d6 stock solution without the precipitation of s-TCO. Nucleophiles mercaptoethanol and cysteine were used in 48 mM end concentration. Cysteine precipitated very soon from the solution. In all cases reactions were followed by ^1H NMR.
Measurements were taken in the following intervals: mercaptoethanol: 0 h, 2 h, 11 h, 17 h and 25 h; cysteine: 0 h, 6 h and 14 h; s-TCO without nucleophile at room temperature: 1 h, 7 h and 14 h. […]

[2] = Chemical stability in the presence of cysteine by 1H NMR; settings: 37° C.; for chemical stability / isomerization, result in words: 48 mM cysteine, 20 mM cyclooctene (s-TCO 10 mM), D2O:DMSO-d6 10:1 v/v, 0-14 h; for trans-isomer still present after 6 hours / Icis / Itrans: cysteine
Procedure: as §1, §2
(§3) Measurements were taken in the following intervals: mercaptoethanol: 0 h, 2 h, 11 h, 17 h and 25 h; cysteine: 0 h, 6 h and 14 h; s-TCO without nucleophile at room temperature: 1 h, 7 h and 14 h.
(§4) In each case the ratio of the integrals of the cis-double bond to the sum of the integrals of the cis- and trans-double bonds was calculate.

[3] = Spontaneous isomerization in D2O or D2O:DMSO-d6 without nucleophile by 1H NMR; settings: for isomerization or degradation on storage in D2O, result in words: stored in D2O, 1H NMR
Procedure: Bulk samples of the compounds described above in Examples 1-3 were stored at −20° C. for six months. […] The spontaneous isomerization took almost 5 days at 37° C. and more than 12 days at room temperature. […] With 22, a similar degree of isomerization was observed only after 63 hours at room temperature in D2O.
as §3, §4

[4] = Tetrazine kinetics with cyclooctenes (stopped-flow spectrophotometry); settings: for k2 second rate constant / second order rate constant k2: reaction with benzylamino tetrazine in PBS at 37° C.
Procedure: Kinetic measurements were performed with benzylamino tetrazine and excessive amounts of cyclooctenes, using an Applied Photophysics Stopped-Flow spectrophotometer. Stock solutions of reactants in DMSO were diluted in PBS pH 7.4 to a final concentration of 1 vol % DMSO. Solutions of these reactants were loaded into the individual chambers of the instrument and equilibrated to 37° C. for 10 min. The concentration of benzylamino tetrazine after the samples were mixed by the spectrometer in a 1:1 v/v ratio was 50, 75 or 150 μM depending on the cyclooctene used. The decrease of the benzylamino tetrazine absorbance measured at 515 nm was monitored at regular intervals between 0.075 s and 10 s depending on the cyclooctene used. For trials shorter than […] (TCO-OH, OX-TCO and 3PEGMe-TCO) 1000 data points were collected and for trials longer than 1 s (EG-TCO and DO-TCO) 10000 data points were collected.
The kobs, (s^−1) values were calculated using the Prism 6 software package and the results of 6 runs were averaged for each cyclooctene concentration. […] The average kobs, values were then plotted against the concentration of cyclooctenes to yield the second order rate constant k2=(dm^3 mol^−1 s^−1) from the slope of the line with the error from the standard deviation in the slope calculated in Prism 6.

[5] = Chemical stability in the presence of cysteine by 1H NMR; settings: for chemical stability (change by NMR) after 16 hours: D2O:DMSO-d6 10:1 v/v at 37° C.; for Itrans/(Icis + Itrans): 37° C.
[6] = Solubility in DMSO/water (D2O) mixtures; settings: dilution with D2O from DMSO-d6 stock solution (D2O:DMSO-d6 10:1)
Procedure: as §2
The conjugates were tested in imaging experiments (FIG. 1). An advantage of the new trans cyclooctene derivatives lies in their improved solubility in DMSO/water mixtures. Bioorthogonal imaging experiments of PARP protein in HT1080 cells (expressing PARP1 fused to mCherry) were successful with all three new compounds, (FIG. 1). The imaging experiments were performed by treating HT1080 cells (expressing PARP1 fused to mCherry) with 5 μM compound 45 (a-d), 46 (e-h) and 47 (i-l) for 30 minutes. After washing with growth media three times for 5 minutes each, cells were incubated for 30 minutes with 1 μM of CFDA-Tz for bio-orthogonal reaction inside the live cells. Following fixation, 40× images were collected by deconvolution microscopy a, e, i) bright field images; b, f, j) Olaparib-TCO/Tz-CFDA staining; c, g, k) PARP1-mCherry, d, h, l) merged images (see FIG. 1). […]

[7] = Spontaneous isomerization in D2O or D2O:DMSO-d6 without nucleophile by 1H NMR; settings: D2O:DMSO-d6 (10:1 v/v), room temperature, no nucleophile
[8] = D2O:DMSO-d6 (10:1 v/v), room temperature, no nucleophile, t 1 h
[9] = D2O:DMSO-d6 (10:1 v/v), room temperature, no nucleophile, t 7 h
[10] = D2O:DMSO-d6 (10:1 v/v), room temperature, no nucleophile, t 14 h

SMILES: COCCOCCOCCOC1CC/C=C/CCC1O (centres unmarked) [3PEGMe-TCO, (E)-8-(2-(2-(2-methoxyethoxy)ethoxy)ethoxy)cyclooct-4-enol]
- Icis ([1]; t 0 h): 0.17
- Itrans ([1]; t 0 h): 2
- Itrans/(Icis + Itrans) ([1]; t 0 h): 0.922
- Icis ([1]; t 2 h): 0.48
- Itrans ([1]; t 2 h): 2
- Itrans/(Icis + Itrans) ([1]; t 2 h): 0.807
- Icis ([1]; t 11 h): 0.66
- Itrans ([1]; t 11 h): 2
- Itrans/(Icis + Itrans) ([1]; t 11 h): 0.752
- Icis ([1]; t 17 h): 0.69
- Itrans ([1]; t 17 h): 2
- Itrans/(Icis + Itrans) ([1]; t 17 h): 0.744
- Icis ([1]; t 25 h): 0.74
- Itrans ([1]; t 25 h): 2
- Itrans/(Icis + Itrans) ([1]; t 25 h): 0.730
- chemical stability / isomerization, result in words [2]: did not show any degradation; also recorded: relatively stable
- isomerization or degradation on storage in D2O, result in words [3]: no isomerization or degradation

SMILES: OCCOC1/C=C/CCCCC1 (centres unmarked) [EG-TCO, (E)-2-(cyclooct-2-en-1-yloxy)ethanol]
- k2 second rate constant [4]: 600 ± 6 dm^3 · mol^−1 · s^−1
- second order rate constant k2 [4]: 600±6 dm^3 mol^−1 s^−1
- chemical stability / isomerization, result in words [1]: did not show any change; also recorded: relatively stable
- chemical stability (change by NMR) after 16 hours [1]: did not show any change
- chemical stability / isomerization, result in words [2]: did not show any change; also recorded: relatively stable
- chemical stability (change by NMR) after 16 hours [5]: did not show any change

SMILES: OC1CC/C=C/CCC1 (stereo not drawn) [TCO-OH, trans-cyclooctenol, reference compound]
- k2 second rate constant [4]: 33585 ± 326 dm^3 · mol^−1 · s^−1
- chemical stability / isomerization, result in words [1]: did not show any change; also recorded: relatively stable
- chemical stability / isomerization, result in words ([1]; listed as TCO): isomerized very fast
- chemical stability (change by NMR) after 16 hours [1]: did not show any change
- chemical stability / isomerization, result in words [2]: did not show any change; also recorded: relatively stable
- isomerization or degradation on storage in D2O, result in words [3]: no isomerization or degradation
- chemical stability (change by NMR) after 16 hours [5]: did not show any change

SMILES: O=C1OC2CC/C=C/CCC2N1CCOCCO (centres unmarked) [OX-TCO, (E)-3-(2-(2-hydroxyethoxy)ethyl)-3,3a,4,5,9,9a-hexahydrocycloocta[d]oxazol-2(8H)-one]
- weighted average second order rate constant k2 ([4]; 4:1 isomer mixture, benzylamino tetrazine in PBS at 37° C.): 29242±636 dm^3 mol^−1 s^−1
- k2 second rate constant [4]: 29242 ± 636 dm^3 · mol^−1 · s^−1
- chemical stability / isomerization, result in words [1]: did not show any change; also recorded: relatively stable
- chemical stability (change by NMR) after 16 hours [1]: did not show any change
- chemical stability / isomerization, result in words [2]: did not show any change; also recorded: relatively stable
- isomerization or degradation on storage in D2O, result in words [3]: no isomerization or degradation
- chemical stability (change by NMR) after 16 hours [5]: did not show any change

SMILES: OCC1C2CCC=CCCC12 (centres unmarked) [s-TCO, reference compound]
- chemical stability / isomerization, result in words [1]: isomerization of the trans isomer to the cis isomer; also recorded: occurred together with unidentified side reactions; also recorded: undergo isomerization/decomposition; also recorded: most of the s-TCO disappeared within the first two hours
- Icis ([1]; t 0 h): 1.19
- Itrans ([1]; t 0 h): 2
- Itrans/(Icis + Itrans) ([1]; t 0 h): 0.627
- Icis ([1]; t 2 h): 87
- Itrans ([1]; t 2 h): 2
- Itrans/(Icis + Itrans) ([1]; t 2 h): 0.023
- Icis ([1]; t 11 h): 2
- Itrans ([1]; t 11 h): 0
- Itrans/(Icis + Itrans) ([1]; t 11 h): 0
- Icis ([1]; t 17 h): 2
- Itrans ([1]; t 17 h): 0
- Itrans/(Icis + Itrans) ([1]; t 17 h): 0
- Icis ([1]; t 25 h): 2
- Itrans ([1]; t 25 h): 0
- Itrans/(Icis + Itrans) ([1]; t 25 h): 0
- chemical stability / isomerization, result in words [2]: isomerization of the trans isomer to the cis isomer; also recorded: isomerization of the trans-isomer to the cis-isomer; also recorded: undergo isomerization/decomposition
- trans-isomer still present after 6 hours [2]: 65%
- Icis ([2]; t 0 h): 0.19
- Itrans ([2]; t 0 h): 2
- Icis ([2]; t 6 h): 1.07
- Itrans ([2]; t 6 h): 2
- Icis ([2]; t 14 h): 8.42
- Itrans ([2]; t 14 h): 2
- isomerization after 14 hours ([3]; D2O:DMSO-d6 10:1, room temperature, 14 hours): at least 5%
- Itrans/(Icis + Itrans) ([3]; D2O:DMSO-d6 (10:1 v/v), room temperature, no nucleophile, t 0 h): 1
- Icis [3, 8]: 0.03
- Itrans [3, 8]: 2
- Icis [3, 9]: 0.06
- Itrans [3, 9]: 2
- Icis [3, 10]: 0.1
- Itrans [3, 10]: 2
- concentration preparable without precipitation [6]: < 20000 µM
- Itrans/(Icis + Itrans) ([5]; t 0 h): 0.913
- Itrans/(Icis + Itrans) ([5]; t 6 h): 0.652
- Itrans/(Icis + Itrans) ([5]; t 14 h): 0.192
- Icis ([7]; t 0 h): 0
- Itrans ([7]; t 0 h): 2
- Itrans/(Icis + Itrans) ([7]; t 1 h): 0.985
- Itrans/(Icis + Itrans) ([7]; t 7 h): 0.971
- Itrans/(Icis + Itrans) ([7]; t 14 h): 0.952

SMILES: OCCOC1/C=C/COCOC1 (centres unmarked) [DO-TCO, (E)-2-((5,8-dihydro-4H-1,3-dioxocin-5-yl)oxy)ethanol]
- k2 second rate constant [4]: 332 ± 3 dm^3 · mol^−1 · s^−1
- second order rate constant k2 [4]: 332±3 dm^3 mol^−1 s^−1
- Icis ([1]; t 0 h): 0
- Itrans ([1]; t 0 h): 2
- Itrans/(Icis + Itrans) ([1]; t 0 h): 1
- Icis ([1]; t 2 h): 0.18
- Itrans ([1]; t 2 h): 2
- Itrans/(Icis + Itrans) ([1]; t 2 h): 0.917
- Icis ([1]; t 11 h): 0.38
- Itrans ([1]; t 11 h): 2
- Itrans/(Icis + Itrans) ([1]; t 11 h): 0.840
- Icis ([1]; t 17 h): 0.42
- Itrans ([1]; t 17 h): 2
- Itrans/(Icis + Itrans) ([1]; t 17 h): 0.826
- Icis ([1]; t 25 h): 0.79
- Itrans ([1]; t 25 h): 2
- Itrans/(Icis + Itrans) ([1]; t 25 h): 0.717
- chemical stability / isomerization, result in words [2]: isomerization of the trans isomer to the cis isomer; also recorded: isomerization of the trans-isomer to the cis-isomer; also recorded: undergo isomerization/decomposition; also recorded: much faster than that of s-TCO
- trans-isomer still present after 6 hours [2]: no trans-compound was present
- Icis ([2]; t 0 h): 0
- Itrans ([2]; t 0 h): 2
- Icis ([2]; t 6 h): 2
- Itrans ([2]; t 6 h): 0
- Icis ([2]; t 14 h): 2
- Itrans ([2]; t 14 h): 0
- time the spontaneous isomerization to the cis isomer took ([3]; D2O, 37° C.): ~5 days
- time after which a similar degree of isomerization (at least 5%) was observed ([3]; D2O, room temperature): 63 h
- time the spontaneous isomerization to the cis isomer took ([3]; D2O, room temperature): more than 12 days
- isomerization or degradation on storage in D2O, result in words [3]: slow isomerization to the cis isomer
- Itrans/(Icis + Itrans) ([5]; t 0 h): 1
- Itrans/(Icis + Itrans) ([5]; t 6 h): 0
- Itrans/(Icis + Itrans) ([5]; t 14 h): 0
